Key:
Assay type in all cases: cell-based
BRAF V600E = biological target: T1, BRAF V600E (Homo sapiens, UniProt P15056, V600E); experiment: BRAF HiBiT degradation assay, C-terminal HiBiT-tagged BRAF V600E A375 cells (clone 1F10), Nano-Glo HiBiT Lytic assay; details: A375 (BRAF V600E, Class 1); for DC50: DC50 at 50% degradation; for Dmax: A-375, observed Dmax, % protein degraded relative to DMSO control
T1 construct: endogenous C-terminal HiBiT fusion tag on BRAF V600E allele; endogenous in cells; host or cells: A375 clone 1F10 (CRISPR-Cas9 knock-in of the HiBiT tag; parental A375 from ATCC)
In short: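 Using CRISPR-engineered A375 cells that carry a C-terminal HiBiT tag on endogenous BRAF V600E, remaining protein was quantified by lytic luminescence relative to DMSO-treated cells, with wildtype A375 as the background control. DC50 denotes the concentration giving 50% degradation.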

BRAF D594G = biological target: T2, BRAF D594G (Homo sapiens, UniProt P15056, D594G); experiment: BRAF HiBiT degradation assay, C-terminal HiBiT-tagged BRAF D594G overexpressed in HCT-116 BRAF−/− cells (clone 63), Nano-Glo HiBiT Lytic assay; details: BRAF D594G (Class 3), HCT-116 BRAF−/− cells; for DC50: DC50 at 50% degradation; for Dmax: observed Dmax relative to DMSO control
T2 construct: Horizon Discovery (HCT-116 BRAF−/− cells); host or cells: HCT-116 BRAF−/− cells, clone 63, lentiviral transduction
In short: (§1)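 Degradation assay in HCT-116 BRAF−/− cells carrying lentiviral HiBiT-tagged mutant BRAF. The readout is % protein remaining across 1 μM to 0.01 nM compound, and DC50 marks 50% remaining.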

BRAF G466V = biological target: T3, BRAF G466V (Homo sapiens, UniProt P15056, G466V); experiment: BRAF HiBiT degradation assay, C-terminal HiBiT-tagged BRAF G466V overexpressed in HCT-116 BRAF−/− cells (clone 8), Nano-Glo HiBiT Lytic assay; details: BRAF G466V (Class 3), HCT-116 BRAF−/− cells; for DC50: DC50 at 50% degradation; for Dmax: observed Dmax relative to DMSO control
T3 construct: Horizon Discovery (HCT-116 BRAF−/− cells); host or cells: HCT-116 BRAF−/− cells, clone 8, lentiviral transduction
In short: as §1

BRAF G469A = biological target: T4, BRAF G469A (Homo sapiens, UniProt P15056, G469A); experiment: BRAF HiBiT degradation assay, C-terminal HiBiT-tagged BRAF G469A overexpressed in HCT-116 BRAF−/− cells (clone 34), Nano-Glo HiBiT Lytic assay; details: BRAF G469A (Class 2), HCT-116 BRAF−/− cells; for DC50: DC50 at 50% degradation; for Dmax: observed Dmax relative to DMSO control
T4 construct: Horizon Discovery (HCT-116 BRAF−/− cells); host or cells: HCT-116 BRAF−/− cells, clone 34, lentiviral transduction
In short: as §1

T4 sequence (P15056 whole entry G469A): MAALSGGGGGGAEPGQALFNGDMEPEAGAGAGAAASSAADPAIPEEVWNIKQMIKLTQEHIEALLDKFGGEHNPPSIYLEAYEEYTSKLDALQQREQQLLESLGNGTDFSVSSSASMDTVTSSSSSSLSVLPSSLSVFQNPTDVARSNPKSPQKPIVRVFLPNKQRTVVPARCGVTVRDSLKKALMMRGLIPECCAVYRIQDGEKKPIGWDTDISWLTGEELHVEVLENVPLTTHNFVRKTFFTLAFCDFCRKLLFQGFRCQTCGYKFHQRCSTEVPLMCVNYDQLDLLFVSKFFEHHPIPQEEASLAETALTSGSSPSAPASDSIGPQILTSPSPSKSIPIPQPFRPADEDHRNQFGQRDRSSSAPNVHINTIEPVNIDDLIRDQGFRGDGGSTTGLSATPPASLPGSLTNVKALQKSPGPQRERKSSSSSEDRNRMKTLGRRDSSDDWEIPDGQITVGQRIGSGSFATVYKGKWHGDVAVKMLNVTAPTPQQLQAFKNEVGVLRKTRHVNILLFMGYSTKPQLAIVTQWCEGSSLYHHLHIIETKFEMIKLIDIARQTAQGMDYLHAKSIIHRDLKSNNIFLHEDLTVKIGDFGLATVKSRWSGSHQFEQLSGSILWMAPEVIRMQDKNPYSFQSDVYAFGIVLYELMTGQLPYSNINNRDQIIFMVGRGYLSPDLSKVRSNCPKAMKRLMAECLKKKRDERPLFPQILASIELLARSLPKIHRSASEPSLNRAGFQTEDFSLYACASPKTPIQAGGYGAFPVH
T1 sequence (P15056 whole entry V600E, the tested form may be a part): as the sequence (P15056 whole entry G469A) above, with A469G, V600E counted along it
T3 sequence (P15056 whole entry G466V): as the sequence (P15056 whole entry G469A) above, with G466V, A469G counted along it
T2 sequence (P15056 whole entry D594G): as the sequence (P15056 whole entry G469A) above, with A469G, D594G counted along it

DC50 (BRAF V600E)	Dmax (BRAF V600E)	DC50 (BRAF D594G)	Dmax (BRAF D594G)	DC50 (BRAF G466V)	Dmax (BRAF G466V)	DC50 (BRAF G469A)	Dmax (BRAF G469A)	SMILES
< 10 nM	> 70%	< 10 nM	30 to 70%	< 10 nM	30 to 70%	> 500 nM	30 to 70%	CCCS(=O)(=O)Nc1cccc(-c2nc(C3CCC4(CC3)CCN(C(=O)C3CCN(c5cccc6c5n(C)c(=O)n6C5CCC(=O)NC5=O)CC3)CC4)sc2-c2ccnc(N)n2)c1F (racemic) [Compound 251, Rac-N-{3-[5-(2-aminopyrimidin-4-yl)-2-[3-(1-{1-[(3R)-2,6-dioxopiperidin-3-yl]-3-methyl-2-oxo-2,3-dihydro-1H-1,3-benzodiazol-4-yl}piperidine-4-carbonyl)-3-azaspiro[5.5]undecan-9-yl]-1,3-thiazol-4-yl]-2-fluorophenyl}propane-1-sulfonamide]
10 to 50 nM	> 70%	> 500 nM	< 30%	> 500 nM	< 30%	> 500 nM	< 30%	CCCS(=O)(=O)Nc1cccc(-c2nc(C3CCC4(CC3)CCN(C(=O)C3CCN(c5ccc(C(=O)NC6CCC(=O)NC6=O)nc5)CC3)CC4)sc2-c2ccnc(N)n2)c1F (racemic) [Compound 252, Rac-5-(4-{9-[5-(2-aminopyrimidin-4-yl)-4-[2-fluoro-3-(propane-1-sulfonamido)phenyl]-1,3-thiazol-2-yl]-3-azaspiro[5.5]undecane-3-carbonyl}piperidin-1-yl)-N-[(3R)-2,6-dioxopiperidin-3-yl]pyridine-2-carboxamide]
< 10 nM	> 70%	< 10 nM	30 to 70%	< 10 nM	> 70%	10 to 50 nM	30 to 70%	CCCS(=O)(=O)Nc1cccc(-c2nc(C3CCN(C(=O)C4CCN(C(=O)C5CCN(c6ccc(C7CCC(=O)NC7=O)cn6)CC5)CC4)CC3)sc2-c2ccnc(N)n2)c1F (racemic) [Compound 254, Rac-N-{3-[5-(2-aminopyrimidin-4-yl)-2-{1-[1-(1-{5-[(3R)-2,6-dioxopiperidin-3-yl]pyridin-2-yl}piperidine-4-carbonyl)piperidine-4-carbonyl]piperidin-4-yl}-1,3-thiazol-4-yl]-2-fluorophenyl}propane-1-sulfonamide]
10 to 50 nM	> 70%	> 500 nM	< 30%	> 500 nM	< 30%	> 500 nM	< 30%	CCCS(=O)(=O)Nc1cccc(-c2nc(C3CCC4(CC3)CCN(C[C@H]3CC[C@H](Oc5ccc(C6CCC(=O)NC6=O)cn5)CC3)CC4)sc2-c2ccnc(N)n2)c1F (mixture of isomers) [Compound 257, N-{3-[5-(2-aminopyrimidin-4-yl)-2-(3-{[(1r,4r)-4-({5-[(3RS)-2,6-dioxopiperidin-3-yl]pyridin-2-yl}oxy)cyclohexyl]methyl}-3-azaspiro[5.5]undecan-9-yl)-1,3-thiazol-4-yl]-2-fluorophenyl}propane-1-sulfonamide]
< 10 nM	30 to 70%	> 500 nM	< 30%	> 500 nM	30 to 70%	> 500 nM	< 30%	CCCS(=O)(=O)Nc1cccc(-c2nc(C3CCC4(CC3)CCN(CC3CCN(c5ccc6c(c5)CN(C5CCC(=O)NC5=O)C6=O)CC3)CC4)sc2-c2ccnc(N)n2)c1F (racemic) [Compound 258, Rac-N-{3-[5-(2-aminopyrimidin-4-yl)-2-{3-[(1-{2-[(3R)-2,6-dioxopiperidin-3-yl]-1-oxo-2,3-dihydro-1H-isoindol-5-yl}piperidin-4-yl)methyl]-3-azaspiro[5.5]undecan-9-yl}-1,3-thiazol-4-yl]-2-fluorophenyl}propane-1-sulfonamide]
